Assay results reported in patent US6641840B2, “Sustained release formulations for growth hormone secretagogues” (Pfizer Inc., priority 2000, dated 2003).
Where two headings read alike, the source gives them in different places.

What was measured:
[1] = system: growth hormone; test: Clinical extension study: growth hormone secretion profile (GH peaks); type: in vivo, human
Procedure: In addition, an extension study was conducted to evaluate the relationship between peak GH concentrations or IGF-I versus surrogate responses such as lipid concentrations and body composition. A sustained release (SR) formulation was also evaluated, either alone or combined with an immediate release (IR) formulation (24-30 patients per group). [16 mg (10 SR, 6 IR) h.s. (h.s. means at bedtime); 16 mg (10 SR, 6 IR) h.s. every third day; 16 mg SR h.s.; and placebo.] The formulations are set forth below.
In addition to this schedule, subjects at selected sites in the extension study were studied during two overnight admissions on the first night of dosing and again on day 28 of dosing. Growth hormone secretion and pharmacokinetic sampling was carried out.
A follow-up evaluation was made at 1, 2, and 4 weeks. Vital signs were obtained and the skin of the face, trunk and upper extremities was inspected.
In addition, subjects at selected study centers were admitted to an overnight unit on day 28 of dosing. Growth hormone secretion profile, pharmacokinetics, and vital sign determination were carried out.

[2] = One compartment pharmacokinetic model fitted to observed human plasma concentrations
From the text: A one compartment pharmacokinetic model was constructed using the following equations (I Think, Stella, HPS, Hanover, N.H.): […]
where ba is bioavailability (1.0), Vdist_liter is volume of distribution in units of liters (0.75), ka_hr1 is absorption rate constant in units of reciprocal hr (1.3), and thalf_hr is the plasma concentration vs. time elimination half-life in units of hr (2.5).
These parameters were then fixed to the values noted above for all subsequent simulations.

[3] = system: IGF-I; test: Simulated sustained release study (bolus vs divided oral solution): serum IGF-I; type: in vivo, human; details: simulated sustained release dosing compared to bolus
Procedure: This dosing regimen simulates active compound delivery by a sustained release dosage form. […] Serum concentrations of growth hormone were monitored just prior to administration of the first dose and every 20 minutes thereafter for 24 hours. Serum […] growth factor-I (IGF-I) concentrations were measured at 0, 12, and 24 hours post-first dose.
The order of treatment was defined by a randomization schedule. Following initial administration, subjects were readmitted to the clinical research facility approximately 14 days later. During the second evaluation, the subject received the treatment not used during the previous session.
IGF-I serum concentrations were determined following administration of the bolus or divided doses. […]
IGF-I quantitation of the human serum samples was conducted using the “DSL-5600A Active™ IGF-I Coated-Tube IRMA (immunoradiometric assay) by Extraction” Kit (Diagnostic Systems Laboratories Inc., Webster, Tex.). […] Lyophilized calibration and validation samples were prepared by the addition of 1 mL of water to the ready-to-use samples. […] This neutralized human serum extract was ready for use in the actual IRMA after having vortexed it briefly. […] The remaining [^125I]radioactivity of all tubes was determined by counting for five minutes using a Canberra-Packard Cobra II™ 5002 ã-counter (Canberra-Packard, Schwadorf, Austria).

[4] = Osmotic agent selection based on active compound solubility screening; type: physicochemical; details: 37 °C, aqueous with cosolvent or surfactant or cyclodextrin
Procedure: The osmogens were screened by preparing a saturated solution (unless otherwise noted) of the candidate osmogen in water at 37° C. for 2 hours, and filtering the undissolved portion as described in Example 5.

[5] = fitted one compartment model, humans

CN1N=C2CCN(C(=O)[C@@H](COCc3ccccc3)NC(=O)C(C)(C)N)C[C@@]2(Cc2ccccc2)C1=O.O=C(O)C(O)C(O)C(=O)O [Compound A]
GH peak heights, Q 3 day group greater than QD group ([1]; 16 mg (10 SR, 6 IR) every third day vs daily): 1.52 ng/mL | GH peaks, average ([1]; group receiving SR alone (16 mg SR h.s.), after 4 weeks): 2 ng/mL | GH peaks, average ([1]; group receiving SR alone (16 mg SR h.s.), at baseline): less than 4 ng/ml | GH peaks, average ([1]; groups receiving 6 mg IR (with 10 mg SR), at baseline): ≥ 15 ng/mL | GH peaks, average ([1]; groups receiving 6 mg IR (with 10 mg SR), by 4 weeks): 4 to 6 ng/mL | absorption rate constant (ka_hr1) [2, 5]: 1.3 reciprocal hr | plasma concentration vs. time elimination half-life (thalf_hr) [2, 5]: 2.5 h | volume of distribution (Vdist_liter) [2, 5]: 0.75 L | bioavailability (ba) ([2]; fitted to observed plasma concentrations after oral 10, 3 and 0.3 mg doses to humans): 1.0 | IGF-I serum concentration change from baseline at 24 hours [3]: increased | solubility at 5 min ([4]; filtrate of osmogen solution in water, fructose solution 250 mg/ml (below saturation), read-out: COMPOUND A Solubility): < 50 mg/mL | solubility at 5 min ([4]; filtrate of osmogen solution in water, visual screening, read-out: active compound solubility measured in this manner): > 150 mg/mL | solubility at 5 min ([4]; filtrate of saturated lactose solution in water, saturated lactose solution, approx. 200 mg/ml, read-out: COMPOUND A Solubility): > 150 mg/mL | solubility at 5 min ([4]; filtrate of saturated mannitol solution in water, saturated mannitol solution, approx. 180 mg/ml, read-out: COMPOUND A Solubility): > 150 mg/mL | solubility at 5 min ([4]; filtrate of saturated sodium bitartrate solution in water, saturated sodium bitartrate solution, approx. 110 mg/ml, read-out: COMPOUND A Solubility): > 150 mg/mL | solubility at 5 min ([4]; sorbitol solution in water, 250 mg/ml (below saturation), sorbitol solution 250 mg/ml (below saturation), read-out: COMPOUND A Solubility): > 150 mg/mL | solubility at 5 min ([4]; xylitol solution in water, 250 mg/ml (below saturation), xylitol solution 250 mg/ml (below saturation), read-out: COMPOUND A Solubility): < 50 mg/mL
